The compounds below were run against Receptor-type tyrosine-protein phosphatase alpha (PTPRA) (Homo sapiens) (UniProt P18433) (assay: Inhibition of PTPalpha expressed in Escherichia coli BL21 (DE3) after 10 mins by spectrophotometry).
Chain of Receptor-type tyrosine-protein phosphatase alpha (PTPRA) (Homo sapiens) (P18433 whole entry, looked up): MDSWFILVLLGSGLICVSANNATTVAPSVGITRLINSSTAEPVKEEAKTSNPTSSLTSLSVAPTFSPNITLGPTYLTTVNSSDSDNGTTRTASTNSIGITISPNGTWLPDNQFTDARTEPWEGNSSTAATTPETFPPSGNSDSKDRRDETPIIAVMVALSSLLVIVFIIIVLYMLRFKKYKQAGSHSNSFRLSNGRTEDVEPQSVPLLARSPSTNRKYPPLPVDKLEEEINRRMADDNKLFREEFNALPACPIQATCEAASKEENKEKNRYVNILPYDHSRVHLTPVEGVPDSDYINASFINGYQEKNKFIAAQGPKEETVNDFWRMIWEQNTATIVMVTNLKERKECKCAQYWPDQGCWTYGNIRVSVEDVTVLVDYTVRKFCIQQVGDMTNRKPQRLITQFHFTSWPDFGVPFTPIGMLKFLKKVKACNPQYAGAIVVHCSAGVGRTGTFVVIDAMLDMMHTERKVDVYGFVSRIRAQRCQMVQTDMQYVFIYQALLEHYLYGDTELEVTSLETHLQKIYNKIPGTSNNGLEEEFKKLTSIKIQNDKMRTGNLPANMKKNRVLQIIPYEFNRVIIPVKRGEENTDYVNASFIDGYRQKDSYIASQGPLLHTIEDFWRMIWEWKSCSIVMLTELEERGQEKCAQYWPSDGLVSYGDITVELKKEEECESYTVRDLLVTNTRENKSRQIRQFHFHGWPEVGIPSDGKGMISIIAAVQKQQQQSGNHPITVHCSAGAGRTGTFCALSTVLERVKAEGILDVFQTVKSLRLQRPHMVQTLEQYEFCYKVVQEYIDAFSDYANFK

Row | IC50 [µM] | Compound
1 | 23.1 | CCOC(=O)c1c(-c2ccc(-c3ccc(F)c(Cl)c3)cc2)csc1NC(=O)c1ccccc1C(=O)O [2-(2-Carboxy-benzoylamino)-4-(30-chloro-40-fluorobiphenyl-4-yl)-thiophene-3-carboxylic acid ethyl ester]
2 | > 100 | CC(C)OC(=O)c1c(-c2ccc(-c3ccc(Cl)cc3)cc2)csc1NC(=O)C1C2C=CC(C2)C1C(=O)O (centres undefined) [2-[(3-Carboxy-bicyclo[2.2.1]hept-5-ene-2-carbonyl)-amino]-4-(4'-chloro-biphenyl-4-yl)-thiophene-3-carboxylicacid isopropyl ester]
3 | > 100 | CCc1oc2cc(S(=O)(=O)Nc3nccs3)ccc2c1C(=O)c1cc(Br)c(O)c(Br)c1 [3-(3,5-dibromo-4-hydroxybenzoyl)-2-ethyl-N-(thiazol-2-yl)benzofuran-6-sulfonamide]
4 | > 100 | CC(C)OC(=O)c1c(-c2ccc(-c3ccccc3)cc2)csc1NC(=O)C1C2C=CC(C2)C1C(=O)O (centres undefined) [4-Biphenyl-4-yl-2-[(3-carboxy-bicyclo[2.2.1]hept-5-ene-2-carbonyl)-amino]-thiophene-3-carboxylic acid isopropylester]
